ChEMBL document CHEMBL5321258, “Anticancer evaluation of benzofuran derivatives linked to dipiperazine moiety” (Bioorg Med Chem Lett, 2023)
pIC50: −log10 of the molar value.

Assays:
[1] = tested on: A549; test: Anticancer activity against human A549 cells assessed as inhibition rate at 30 uM by SRB assay relative to control; type: functional
[2] = tested on: HeLa; test: Anticancer activity against human Hela cells assessed as inhibition rate at 10 uM by SRB assay relative to control; type: functional
[3] = tested on: A549; test: Anticancer activity against human A549 cells assessed as inhibition rate at 10 uM by SRB assay relative to control; type: functional
[4] = tested on: HeLa; test: Anticancer activity against human Hela cells assessed as inhibition rate at 30 uM by SRB assay relative to control; type: functional
[5] = tested on: HeLa; test: Anticancer activity against human HeLa cells assessed as inhibition of cell proliferation by SRB assay; type: functional, cell-based
[6] = tested on: A549; test: Anticancer activity against human A549 cells assessed as inhibition of cell proliferation by SRB assay; type: functional, cell-based
[7] = tested on: A549; test: Induction of apoptosis in human A549 cells assessed as late apoptotic cells at 2.5 uM incubated for 24 hrs AnnexinV/ propidium iodide staining based flow cytometry (Rvb= 0.54 %); type: functional
[8] = tested on: A549; test: Induction of apoptosis in human A549 cells assessed as early apoptotic cells at 5 uM incubated for 24 hrs AnnexinV/ propidium iodide staining based flow cytometry (Rvb= 0.79 %); type: functional
[9] = tested on: A549; test: Induction of apoptosis in human A549 cells assessed as necrotic cells at 5 uM incubated for 24 hrs AnnexinV/ propidium iodide staining based flow cytometry (Rvb= 0.16 %); type: functional
[10] = tested on: A549; test: Induction of apoptosis in human A549 cells assessed as necrotic cells at 2.5 uM incubated for 24 hrs AnnexinV/ propidium iodide staining based flow cytometry (Rvb= 0.16 %); type: functional
[11] = tested on: A549; test: Induction of apoptosis in human A549 cells assessed as early apoptotic cells at 2.5 uM incubated for 24 hrs AnnexinV/ propidium iodide staining based flow cytometry (Rvb= 0.79 %); type: functional
[12] = tested on: A549; test: Induction of apoptosis in human A549 cells assessed as viable cells at 5 uM incubated for 24 hrs AnnexinV/ propidium iodide staining based flow cytometry (Rvb= 98.5 %); type: functional; conditions: read-out: Activity
[13] = tested on: A549; test: Induction of apoptosis in human A549 cells assessed as late apoptotic cells at 5 uM incubated for 24 hrs AnnexinV/ propidium iodide staining based flow cytometry (Rvb= 0.54 %); type: functional
[14] = tested on: A549; test: Induction of apoptosis in human A549 cells assessed as viable cells at 2.5 uM incubated for 24 hrs AnnexinV/ propidium iodide staining based flow cytometry (Rvb= 98.5 %); type: functional; conditions: read-out: Activity

Row | Structure (SMILES) | inhibition at 30 µM [1] [%] | inhibition at 10 µM [2] [%] | inhibition at 10 µM [3] [%] | inhibition at 30 µM [4] [%] | pIC50 [5] | pIC50 [6] | Activity [7] [%] | Activity [8] [%] | Activity [9] [%] | Activity [10] [%] | Activity [11] [%] | viability at 5 µM [12] [%] | Activity [13] [%] | viability at 2.5 µM [14] [%]
1 | CCc1ccc(C(=O)N2CCN(CC(=O)N3CCN(CCOc4ccc(C(O)c5cc6ccc(N(CC)CC)cc6o5)cc4)CC3)CC2)cc1 (stereo not drawn) | 73.2 | 36.1 | 47.9 | 75.2 | – | – | – | – | – | – | – | – | – | –
2 | CCN(CC)c1ccc2cc(C(=O)c3ccc(OCCN4CCN(C(=O)CN5CCN(C(=O)c6cccc(C(F)(F)F)c6)CC5)CC4)cc3)oc2c1 | 57.8 | 27.4 | 49.3 | 70.1 | – | – | – | – | – | – | – | – | – | –
3 | CCN(CC)c1ccc2cc(C(=O)c3ccc(OCCN4CCN(C(=O)CN5CCN(C(=O)c6ccc(OC)cc6)CC5)CC4)cc3)oc2c1 | 85.8 | 27.5 | 65.3 | 64.1 | 4.57 | 5.09 | – | – | – | – | – | – | – | –
4 | C=C(C)C(=O)N1CCN(CC(=O)N2CCN(CCOc3ccc(C(O)c4cc5ccc(N(CC)CC)cc5o4)cc3)CC2)CC1 (stereo not drawn) | 55.5 | 5.4 | 22.2 | 30.5 | – | – | – | – | – | – | – | – | – | –
5 | CCN(CC)c1ccc2cc(C(=O)c3ccc(OCCN4CCN(C(=O)CN5CCN(C(=O)c6ccc7ccccc7c6)CC5)CC4)cc3)oc2c1 | 78.8 | 48.7 | 30.9 | 85.3 | 4.95 | 4.67 | – | – | – | – | – | – | – | –
6 | CCN(CC)c1ccc2cc(C(=O)c3ccc(OCCN4CCN(C(=O)CN5CCN(C(=O)c6ccc([N+](=O)[O-])cc6)CC5)CC4)cc3)oc2c1 | 22.9 | 17.2 | 16.5 | 24 | – | – | – | – | – | – | – | – | – | –
7 | CCN(CC)c1ccc2cc(C(=O)c3ccc(OCCN4CCN(C(=O)CN5CCN(C(=O)c6ccc(C(F)(F)F)cc6)CC5)CC4)cc3)oc2c1 | 77.9 | 50.7 | 54.8 | 94.9 | 5.06 | 5.15 | – | – | – | – | – | – | – | –
8 | CCc1ccc(C(=O)N2CCN(CC(=O)N3CCN(CCOc4ccc(C(=O)c5cc6ccc(N(CC)CC)cc6o5)cc4)CC3)CC2)cc1 | 76.7 | 42.7 | 24.7 | 81.1 | 4.84 | < 4.52 | – | – | – | – | – | – | – | –
9 | C=CC(=O)N1CCN(CC(=O)N2CCN(CCOc3ccc(C(O)c4cc5ccc(N(CC)CC)cc5o4)cc3)CC2)CC1 (stereo not drawn) | 64 | 53.8 | 51.9 | 90.7 | 5.16 | 5.04 | – | – | – | – | – | – | – | –
10 | CCN(CC)c1ccc2cc(C(O)c3ccc(OCCN4CCN(C(=O)CN5CCN(C(=O)c6ccccc6F)CC5)CC4)cc3)oc2c1 (stereo not drawn) | 75.6 | 79 | 55.3 | 92 | 5.33 | 5.06 | – | – | – | – | – | – | – | –
11 | CCN(CC)c1ccc2cc(C(=O)c3ccc(OCCN4CCN(C(=O)CN5CCN(C(=O)c6ccc(Cl)cc6)CC5)CC4)cc3)oc2c1 | 78.1 | 47.5 | 22.9 | 89 | 4.83 | 4.60 | – | – | – | – | – | – | – | –
12 | CCN(CC)c1ccc2cc(C(=O)c3ccc(OCCN4CCN(C(=O)CN5CCN(C(=O)c6ccc(C)cc6)CC5)CC4)cc3)oc2c1 | 62.4 | 61.4 | 54.3 | 90.1 | 5.15 | 5.04 | – | – | – | – | – | – | – | –
13 | CCN(CC)c1ccc2cc(C(O)c3ccc(OCCN4CCN(C(=O)CN5CCN(C(=O)c6cccc(C(F)(F)F)c6)CC5)CC4)cc3)oc2c1 (stereo not drawn) | 81.2 | 43.9 | 65.1 | 69.5 | 4.55 | 5.05 | – | – | – | – | – | – | – | –
14 | CCN(CC)c1ccc2cc(C(O)c3ccc(OCCN4CCN(C(=O)CN5CCN(C(=O)c6ccccc6C(F)(F)F)CC5)CC4)cc3)oc2c1 (stereo not drawn) | 57.8 | 30.6 | 43.6 | 49.8 | – | – | – | – | – | – | – | – | – | –
15 | CCN(CC)c1ccc2cc(C(=O)c3ccc(OCCN4CCN(C(=O)CN5CCN(C(=O)c6cc(F)c(F)c(F)c6F)CC5)CC4)cc3)oc2c1 | 61.1 | 28 | 20 | 86.6 | – | – | – | – | – | – | – | – | – | –
16 | CCN(CC)c1ccc2cc(C(=O)c3ccc(OCCN4CCN(C(=O)CN5CCN(C(=O)c6ccc(Br)cc6C(F)(F)F)CC5)CC4)cc3)oc2c1 | 53.8 | 33.2 | 41.4 | 62.2 | – | – | – | – | – | – | – | – | – | –
17 | CCN(CC)c1ccc2cc(C(=O)c3ccc(OCCN4CCN(C(=O)CN5CCN(C(=O)c6cc(Cl)cc(Cl)c6)CC5)CC4)cc3)oc2c1 | 49.3 | 20.1 | 39.8 | 41.7 | – | – | – | – | – | – | – | – | – | –
18 | CCN(CC)c1ccc2cc(C(O)c3ccc(OCCN4CCN(C(=O)CN5CCN(C(=O)c6ccc([N+](=O)[O-])cc6)CC5)CC4)cc3)oc2c1 (stereo not drawn) | 33 | 17.2 | 19.2 | 28.3 | – | – | – | – | – | – | – | – | – | –
19 | CCN(CC)c1ccc2cc(C(O)c3ccc(OCCN4CCN(C(=O)CN5CCN(C(=O)c6ccc(F)cc6)CC5)CC4)cc3)oc2c1 (stereo not drawn) | 83.9 | 20.4 | 80.1 | 40.6 | < 4.52 | 6.37 | 18.9 | 28.5 | 9.18 | 4.26 | 5.88 | 23.4 | 39 | 71
20 | CCN(CC)c1ccc2cc(C(O)c3ccc(OCCN4CCN(C(=O)CN5CCN(C(=O)c6ccc(OC)cc6)CC5)CC4)cc3)oc2c1 (stereo not drawn) | 63.5 | 42 | 55.2 | 66.7 | – | – | – | – | – | – | – | – | – | –
21 | CCN(CC)c1ccc2cc(C(O)c3ccc(OCCN4CCN(C(=O)CN5CCN(C(=O)c6ccc(C(F)(F)F)cc6)CC5)CC4)cc3)oc2c1 (stereo not drawn) | 95.2 | 11.3 | 92.5 | 19.8 | < 4.52 | 6.92 | 1.73 | 1.95 | 0.55 | 0.25 | 1.07 | 94 | 3.49 | 97
22 | CCN(CC)c1ccc2cc(C(O)c3ccc(OCCN4CCN(C(=O)CN5CCN(C(=O)c6ccc(C)cc6)CC5)CC4)cc3)oc2c1 (stereo not drawn) | 97.2 | 15.9 | 77.9 | 35.9 | < 4.52 | 5.81 | – | – | – | – | – | – | – | –
23 | CCN(CC)c1ccc2cc(C(=O)c3ccc(OCCN4CCN(C(=O)CN5CCN(C(=O)c6ccccc6F)CC5)CC4)cc3)oc2c1 | 76.9 | 31.4 | 66.4 | 56.9 | – | – | – | – | – | – | – | – | – | –
24 | CCN(CC)c1ccc2cc(C(=O)c3ccc(OCCN4CCN(C(=O)CN5CCN(C(=O)c6ccccc6C(F)(F)F)CC5)CC4)cc3)oc2c1 | 34.5 | 25.5 | 27.3 | 44.1 | – | – | – | – | – | – | – | – | – | –
25 | CCN(CC)c1ccc2cc(C(=O)c3ccc(OCCN4CCN(C(=O)CN5CCN(C(=O)c6ccc(F)cc6)CC5)CC4)cc3)oc2c1 | 45.3 | 26 | 29 | 57 | – | – | – | – | – | – | – | – | – | –
26 | C=C(C)C(=O)N1CCN(CC(=O)N2CCN(CCOc3ccc(C(=O)c4cc5ccc(N(CC)CC)cc5o4)cc3)CC2)CC1 | 69.8 | -2.1 | 36.1 | 3.2 | – | – | – | – | – | – | – | – | – | –
27 | CCN(CC)c1ccc2cc(C(O)c3ccc(OCCN4CCN(C(=O)CN5CCN(C(=O)c6ccc7ccccc7c6)CC5)CC4)cc3)oc2c1 (stereo not drawn) | 89.2 | 12.1 | 77.9 | 24 | < 4.52 | 5.52 | – | – | – | – | – | – | – | –
28 | CCN(CC)c1ccc2cc(C(O)c3ccc(OCCN4CCN(C(=O)CN5CCN(C(=O)c6ccc(Br)cc6C(F)(F)F)CC5)CC4)cc3)oc2c1 (stereo not drawn) | 72.3 | -1.6 | 69.7 | 9.7 | – | – | – | – | – | – | – | – | – | –
29 | C=CC(=O)N1CCN(CC(=O)N2CCN(CCOc3ccc(C(=O)c4cc5ccc(N(CC)CC)cc5o4)cc3)CC2)CC1 | 9.3 | 18.6 | 2.3 | 32.1 | – | – | – | – | – | – | – | – | – | –
